Tests used:
[1] = Antiplatelet aggregation activity in New Zealand white rabbit platelet rich plasma assessed as inhibition of ADP-induced aggregation treated for 3 mins before ADP challenge by turbidimetric method; assay type: functional; details: Oryctolagus cuniculus, Newzealand white
RAW264.7 [2] = assay: Inhibition of nitric oxide production in LPS-stimulated mouse RAW264.7 cells at 100 uM by Griess reagent assay; assay type: functional
[3] = Cytotoxicity against mouse RAW264.7 cells assessed as cell survival up to 100 uM by MTT assay; assay type: cell-based; details: read-out: Activity
RAW264.7 [4] = assay: Inhibition of nitric oxide production in LPS-stimulated mouse RAW264.7 cells by Griess reagent assay; assay type: functional, cell-based

SMILES | IC50 [1] | IC50 (RAW264.7 [4]) | inhibition at 100 µM (RAW264.7 [2]) | viability [3]
CC1(C)CCC[C@]2(C)[C@H]3CCC4=CC(=O)O[C@@H]4[C@@]3(C)C(=O)C[C@@H]12 [KRAVANHIN B] | > 200 µM | 36.2 µM | < 10% | 90%
CC1(C)C(=O)CC[C@]2(C)[C@H]3CCC4=CC(=O)O[C@@H]4[C@@]3(C)C(=O)C[C@@H]12 [KRAVANHIN C] | > 200 µM |  | < 10% | 90%
CC1(C)CCC[C@]2(C)[C@H]3CC=C(CCO)C(O)[C@@]3(C)C(=O)C[C@@H]12 (some centres undefined) [KRAVANHIN D] | > 200 µM |  | < 10% | 90%
CNC(=N)NCCC[C@H](N)C(=O)O [TILARGININE] |  | 40.4 µM |  | 

Further lines, with some results ahead:

IC50 [1] | IC50 (RAW264.7 [4]) | SMILES | inhibition at 100 µM (RAW264.7 [2]) | viability [3]
> 200 µM |  | C=C1CC[C@H]2C(C)(C)CCC[C@]2(C)[C@H]1C/C=C(/CO)[C@@H](O)CO | < 10% | 90%
58.9 µM |  | C=C1CC[C@H]2[C@](C)(CO)[C@@H](O)CC[C@]2(C)[C@H]1CCC1=CC(=O)OC1 | < 10% | 90%
> 200 µM |  | C=C1CC[C@H]2[C@](C)(CO)[C@@H](O)CC[C@]2(C)[C@H]1C/C=C1\CCOC1=O | < 10% | 90%
58.9 µM |  | CC(=O)Oc1ccccc1C(=O)O [ASPIRIN] |  | 
> 200 µM |  | CC1(C)[C@@H](O)CC[C@]2(C)[C@H]3CCC4=CC(=O)O[C@@H]4[C@@]3(C)C(=O)C[C@@H]12 [KRAVANHIN A] | < 10% | 90%

— ChEMBL document CHEMBL2331422, “Tetracyclic diterpenoids with isomerized isospongian skeleton and labdane diterpenoids from the fruits of Amomum kravanh” (J Nat Prod, 2013)
